Measured values from the NIST ThermoML archive (doi:10.1021/je060249h).
Several values for one entry are separate records, joined by “and”; a condition that tells them apart may be missing. Identical values can stand only once. Numbers after ± are expanded uncertainties.

Settings: Liquid

Question: Which results are given for `ClCc1nc2ccccc2o1` [2-(chloromethyl)-1,3-benzoxazole]?
Answer: vapor or sublimation pressure (347.65 K, Ebulliometric method (Recirculating still)): 0.08 ± 0.06 kPa; vapor or sublimation pressure (357.1 K, Ebulliometric method (Recirculating still)): 0.16 ± 0.06 kPa; vapor or sublimation pressure (368.45 K, Ebulliometric method (Recirculating still)): 0.32 ± 0.07 kPa; vapor or sublimation pressure (375.15 K, Ebulliometric method (Recirculating still)): 0.59 ± 0.08 kPa; vapor or sublimation pressure (378.2 K, Ebulliometric method (Recirculating still)): 0.69 ± 0.09 kPa; vapor or sublimation pressure (383.2 K, Ebulliometric method (Recirculating still)): 0.96 ± 0.12 kPa; vapor or sublimation pressure (388.15 K, Ebulliometric method (Recirculating still)): 1.39 ± 0.12 kPa; vapor or sublimation pressure (393.5 K, Ebulliometric method (Recirculating still)): 1.76 ± 0.44 kPa; vapor or sublimation pressure (393.85 K, Ebulliometric method (Recirculating still)): 1.87 ± 0.44 kPa; vapor or sublimation pressure (395.6 K, Ebulliometric method (Recirculating still)): 2.03 ± 0.2 kPa; vapor or sublimation pressure (400.3 K, Ebulliometric method (Recirculating still)): 2.72 ± 0.19 kPa; vapor or sublimation pressure (405.25 K, Ebulliometric method (Recirculating still)): 3.28 ± 0.25 kPa; vapor or sublimation pressure (408.35 K, Ebulliometric method (Recirculating still)): 4.19 ± 0.34 kPa; vapor or sublimation pressure (411.9 K, Ebulliometric method (Recirculating still)): 4.88 ± 0.34 kPa; vapor or sublimation pressure (417.3 K, Ebulliometric method (Recirculating still)): 6.32 ± 1.7 kPa; vapor or sublimation pressure (418.1 K, Ebulliometric method (Recirculating still)): 7.29 ± 1.4 kPa; vapor or sublimation pressure (418.85 K, Ebulliometric method (Recirculating still)): 7.91 ± 1.2 kPa; vapor or sublimation pressure (418.9 K, Ebulliometric method (Recirculating still)): 7.92 ± 0.73 kPa; vapor or sublimation pressure (422.05 K, Ebulliometric method (Recirculating still)): 9.41 ± 0.66 kPa; vapor or sublimation pressure (423.2 K, Ebulliometric method (Recirculating still)): 9.92 ± 0.73 kPa and 10.59 ± 0.75 kPa; vapor or sublimation pressure (424.2 K, Ebulliometric method (Recirculating still)): 10.53 ± 0.9 kPa; vapor or sublimation pressure (424.55 K, Ebulliometric method (Recirculating still)): 10.8 ± 1.1 kPa

Question: With `Clc1ccccc1` [chlorobenzene] as the compound, how does the “vapor or sublimation pressure” value (330.5 K) read?
Answer: 7.92 ± 0.55 kPa

Question: What about the “vapor or sublimation pressure” value (337.4 K) of the same compound?
Answer: 10.59 ± 0.55 kPa
